Test results reported in US20060010514A1, “Polynucleotides encoding mature AHASL proteins for creating imidazolinone-tolerant plants” (BASF Plant Science GmbH, priority 2004, published 2006).

Legend:
[1] = tested on: wheat lines with S653(At)N mutation in AHASL1A; test: herbicide spray assay, greenhouse-grown mutagenized wheat lines; format: in vivo, Triticum aestivum; conditions: 0-9 rating scale (0=no injury; 9=highest injury); after spraying with imazamox; mutation in 1A
Experimental: (§1) The most common mutation observed in wheat results in a Ser to Asn substitution at the position equivalent to Ser653 in Arabidopsis (termed S653(At)N). Typically, 24 individuals from each mutagenized line were scored on a 0-9 rating scale (0=no injury; 9=highest injury) after spraying with a rate of imazamox sufficient for detecting differences in the greenhouse-grown plants (FIG. 4). For each line, the specific gene mutated was determined. A clear correlation was found between the ratings from herbicide spray assays and the specific homoeolog that was mutated at this position.

[2] = tested on: wheat lines with S653(At)N mutation in AHASL1B; test: as above; format: in vivo, Triticum aestivum; conditions: 0-9 rating scale (0=no injury; 9=highest injury); after spraying with imazamox; mutation in 1B
Experimental: as §1

[3] = tested on: wheat lines with S653(At)N mutation in AHASL1D; test: as above; format: in vivo, Triticum aestivum; conditions: 0-9 rating scale (0=no injury; 9=highest injury), after spraying with imazamox
Experimental: as §1

[4] = tested on: AHAS of S653(At)N mutant in AHASL1A; test: AHAS assay on extracts of S653(At)N mutants; format: biochemical, Triticum aestivum; conditions: 100 μM imazapyr, several backgrounds
Source text: (§2) The deletions, insertions, and substitutions of the protein sequences encompassed herein are not expected to produce radical changes in the characteristics of the protein. However, when it is difficult to predict the exact effect of the substitution, deletion, or insertion in advance of doing so, one skilled in the art will appreciate that the effect will be evaluated by routine screening assays. That is, AHASL function can be evaluated by AHAS enzyme activity assays in the presence and absence of an imidazolinone herbicide. See, for example, Singh et al. ((1988) Anal. Biochem. 171:173-179), herein incorporated by reference.
(§3) To obtain an understanding of the effect of each mutation on the level of enzyme sensitivity to the herbicides, AHAS assays were performed on S653(At)N mutants in all three genes using individuals from several backgrounds (representative data in FIG. 6A). […] Also, a double mutant between 1A and 1D retained 63% of AHAS activity (Pozniak et al. submitted). […] In durum wheat (T. turgidum) each homeolog appears to contribute equally to the AHAS pool (FIG. 6B).

[5] = tested on: AHAS of S653(At)N mutant in AHASL1B; test: AHAS assay on extracts of S653(At)N mutants; format: biochemical, Triticum aestivum
Source text: as §2, §3

[6] = tested on: AHAS of S653(At)N mutant in AHASL1D; test: AHAS assay on extracts of S653(At)N mutants; format: biochemical, Triticum aestivum
Source text: as §2, §3

[7] = tested on: AHAS of double mutant between 1A and 1D; conditions: herbicide not restated, follows the 100 μM imazethapyr sentence; cited from earlier work

SMILES: COCc1cnc(C2=NC(C)(C(C)C)C(=O)N2)c(C(=O)O)c1 (stereo not drawn) [imazamox]
- median injury [1]: 6.4
- median injury [2]: 5.4
- median injury [3]: 4.0

SMILES: CC(C)C1(C)N=C(c2ncccc2C(=O)O)NC1=O (stereo not drawn) [imazapyr]
- AHAS activity in the presence of herbicide [4]: 33%
- AHAS activity in the presence of herbicide ([5]; 100 μM imazapyr, AHASL1B S653(At)N mutant, several backgrounds): 25%
- AHAS activity in the presence of herbicide (level of insensitivity) ([6]; 100 μM imazapyr, AHASL1D S653(At)N mutant, several backgrounds): 38%

SMILES: CCc1cnc(C2=NC(C)(C(C)C)C(=O)N2)c(C(=O)O)c1 (stereo not drawn) [imazethapyr]
- AHAS activity in the presence of herbicide ([5]; 100 μM imazethapyr, AHAS1B mutant extract, CDC Teal background): 30%
- AHAS activity in the presence of herbicide ([6]; 100 μM imazethapyr, AHAS1D mutant extract, CDC Teal background): 40%
- AHAS activity retained [7]: 63%
